Assay results reported in ChEMBL document CHEMBL1201862, “PubChem BioAssay data set” (2004).
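Assay format: 96-well plates, 48-hour exposure. GI50 = concentration required for 50% inhibition of growth.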 The source made the active and inactive calls. No stated cut-off is given here; in the data, active = GI50 up to about 1.1 µM and inactive = higher.

Assays:
Assay in all cases: growth of human tumour cells (NCI), 48 h
786-0 = tested on: 786-0
A498 = tested on: A498
BT-549 = tested on: BT-549
COLO 205 = tested on: COLO 205
DU-145 = tested on: DU-145
HCT-116 = tested on: HCT-116
HCT-15 = tested on: HCT-15
HOP-62 = tested on: HOP-62
HT-29 = tested on: HT-29
NCI/ADR-RES = tested on: NCI/ADR-RES
OVCAR-4 = tested on: OVCAR-4
RPMI-8226 = tested on: RPMI-8226
RXF 393 = tested on: RXF 393
SF-539 = tested on: SF-539
SK-MEL-2 = tested on: SK-MEL-2
SK-MEL-5 = tested on: SK-MEL-5
SW-620 = tested on: SW-620
Malme-3M = tested on: Malme-3M
NCI-H522 = tested on: NCI-H522
OVCAR-5 = tested on: OVCAR-5

Compound | GI50 (786-0) | GI50 (A498) | GI50 (BT-549) | GI50 (COLO 205) | GI50 (DU-145) | GI50 (HCT-116) | GI50 (HCT-15) | GI50 (HOP-62) | GI50 (HT-29) | GI50 (NCI/ADR-RES) | GI50 (OVCAR-4) | GI50 (RPMI-8226) | GI50 (RXF 393) | GI50 (SF-539) | GI50 (SK-MEL-2) | GI50 (SK-MEL-5) | GI50 (SW-620) | GI50 (Malme-3M) | GI50 (NCI-H522) | GI50 (OVCAR-5)
NNC(=O)c1cccc2c1Oc1ccccc1S2 | > 100 µM (inactive) | 18.2 µM (inactive) | 97.3 µM (inactive) | > 100 µM (inactive) | 69 µM (inactive) | > 100 µM (inactive) | > 100 µM | 95.9 µM (inactive) | > 100 µM (inactive) | 83.9 µM (inactive) | > 100 µM (inactive) | > 100 µM (inactive) | 59.3 µM (inactive) | > 100 µM (inactive) | > 100 µM (inactive) | > 100 µM (inactive) | > 100 µM (inactive) |  |  | 
Cc1nc(Nc2nc3ccccc3[nH]2)[nH]c(=O)c1CCO | 65.6 µM (inactive) | > 100 µM (inactive) | > 100 µM (inactive) | > 59.8 µM (inactive) | 61.7 µM (inactive) | 77.6 µM (inactive) | 61.9 µM | > 100 µM (inactive) | > 100 µM (inactive) | > 100 µM (inactive) | > 100 µM (inactive) |  | 21.7 µM (inactive) | 39.9 µM (inactive) | 37.2 µM (inactive) | 70.3 µM (inactive) | 99.8 µM (inactive) | 25.6 µM (inactive) | > 100 µM (inactive) | > 86.9 µM (inactive)
CCOC(=O)C1=CN2C(=N[C@H]3CCCC[C@@H]32)NC1=O | > 100 µM (inactive) | > 100 µM (inactive) | > 100 µM (inactive) | > 100 µM (inactive) | > 100 µM (inactive) | > 100 µM (inactive) | > 100 µM |  | > 100 µM (inactive) | > 100 µM (inactive) | > 100 µM (inactive) | > 100 µM (inactive) |  | > 100 µM (inactive) | > 100 µM (inactive) | > 100 µM (inactive) | > 100 µM (inactive) | > 100 µM (inactive) | > 100 µM (inactive) | > 100 µM (inactive)
Clc1ccc(Cc2nc3ccccc3nc2-c2cccc(Br)c2)cc1 | 1.75 µM (inactive) |  | 3.5 µM (inactive) | 3.17 µM (inactive) | 10.7 µM (inactive) | 1.88 µM (inactive) | 1.41 µM | 17.9 µM (inactive) | 2.5 µM (inactive) | 3.08 µM (inactive) | 2.18 µM (inactive) | 1.64 µM (inactive) | 2.47 µM (inactive) | 2.26 µM (inactive) | 4.67 µM (inactive) | 13.9 µM (inactive) | 2.04 µM (inactive) | 4.45 µM (inactive) | 1.78 µM (inactive) | 4.19 µM (inactive)
C(=C\c1cc[n+](CCc2ccccc2)cc1)/c1ccccc1 | 21.8 µM (inactive) |  | 11.3 µM (inactive) | 5.73 µM (inactive) | 27 µM (inactive) | 11.3 µM (inactive) | > 100 µM | 12.6 µM (inactive) | 6.79 µM (inactive) | > 100 µM (inactive) | 9.04 µM (inactive) | 5.45 µM (inactive) | 88.7 µM (inactive) | 20.4 µM (inactive) | 17.1 µM (inactive) | 1.28 µM (inactive) | 12.1 µM (inactive) | 11.2 µM (inactive) | 14.7 µM (inactive) | 22.9 µM (inactive)
CC(C)(C)NC(=S)N/N=C/c1ccccn1 | 0.0545 µM (active) | 2.73 µM (inactive) | 18.3 µM (inactive) | < 0.01 µM (active) | 2.04 µM (inactive) | < 0.01 µM (active) | < 0.0159 µM | 0.396 µM (active) | < 0.0452 µM (active) | 0.0343 µM (active) |  | < 0.0106 µM (active) | < 0.01 µM (active) | 3.28 µM (inactive) | 0.724 µM (active) | 0.409 µM (active) | < 0.0113 µM (active) | 3.72 µM (inactive) |  | 0.361 µM (active)
CCOC(=O)C(SCCO)C(C(=O)OCC)n1cnc2c(=O)[nH]c(NC(C)=O)nc21 (stereo unspecified) | > 100 µM (inactive) | > 100 µM (inactive) | > 100 µM (inactive) | > 100 µM (inactive) | > 100 µM (inactive) | > 100 µM (inactive) | > 100 µM | > 100 µM (inactive) | > 100 µM (inactive) | > 100 µM (inactive) | > 100 µM (inactive) | > 100 µM (inactive) |  | > 100 µM (inactive) | > 100 µM (inactive) | > 100 µM (inactive) | > 100 µM (inactive) | > 100 µM (inactive) | > 100 µM (inactive) | > 100 µM (inactive)
CN1CC[C@]23c4c5ccc(O)c4OC2c2[nH]ncc2C[C@H]3[C@H]1C5 (stereo partly specified) | > 100 µM (inactive) |  | > 100 µM (inactive) | > 100 µM (inactive) | > 100 µM (inactive) | > 100 µM (inactive) | > 100 µM | > 100 µM (inactive) | > 100 µM (inactive) | > 100 µM (inactive) | > 100 µM (inactive) | > 100 µM (inactive) | > 100 µM (inactive) |  | > 100 µM (inactive) | > 100 µM (inactive) |  | > 100 µM (inactive) | > 100 µM (inactive) | > 100 µM (inactive)
